{
  "source": "patent US12201628B2",
  "about": "“Neuronal modulation” (priority 2013, dated 2025)",
  "system": "immune cell clusters (CD45+ cells)",
  "assay": "CyTOF mass cytometry of blood and spleen with Citrus analysis",
  "format": "in vivo, mice",
  "details": "24 h after CNO, VTA-activated vs control",
  "method": "Two weeks after completion of the behavioral testing, mice were injected intraperitoneally with CNO and anesthetized 24 hours thereafter. Spleens and blood samples were collected. Spleens were dissociated into single-cell suspensions in 2% fetal bovine serum (Biological Industries, IL) and mesh filtered to remove clumps and debris. Blood samples were collected into heparin-coated sterile test tubes. Both the blood and the spleen cell suspensions were lysed with red blood cell lysis buffer (BD Biosciences, NJ, US). Cells ([…]) from each tissue were stained, for 1 hour at room temperature, with a mixture of metal tagged antibodies recognizing CD45, CCR3, CD80, GR1, CD86, CD19, CD4, CD45R, CD152, CD138, CD8, NK1.1, CD27, CD206, CD25, CD14, CD11c, CD49b, CD34, CD69, CD123, TCRβ, CCR7, CD28, CD115, CD133, TLR4, CD117, CD79b, CD62L, CD44, CD45RA, CD1d, IAIE, CD5, and CD11b. All antibodies were conjugated using the MAXPAR reagent (Fluidigm Inc.), with Rhodium and Iridium intercalators used to identify live/dead cells. Cells were washed twice with PBS, fixed in 1.6% formaldehyde (Sigma-Aldrich, St. Louis, MO) for 1 hour, washed again in ultrapure H2O and subjected to CyTOF mass cytometry analysis on a CyTOF I machine, with cell events acquired at approximately 500 events per second. In addition, each sample was spiked with internal metal isotope bead standards, which then was used for sample normalization by CyTOF software (Fluidigm). Acquired data was then uploaded to a Cytobank web server (Cytobank Inc.) for data processing and gating out of dead cells and normalization beads. Data was transformed using an arc sin h (X/5) transformation.\nDifferences in cell subset abundance and functional marker expression between VTA activated and control mice, were identified using the Citrus algorithm, a clustering and differential detection algorithm especially suited for high dimensional cytometry data (2). Twenty FCS files of normalized, live cell/no beads samples (Five VTA activated mice spleens, five VTA activated mice blood samples, 5 control mice spleen and five control mice blood) were each randomly sampled for 40,000 single cell events each. Briefly, Citrus performs three steps to identify cell subsets and differences between groups: First, collected single cell events are pooled together and iteratively hierarchically clustered using a subset of the measured channels for clustering (See Table 1 for a list of 23 clustering markers), yielding overlapping clusters with the ultimate cluster being one encompassing all sampled events. Second, the pooled dataset is split back into its constituting samples and the relative abundance of cells in each cluster is computed, as well as the median values of each functional marker (see Table 1 for a list of functional markers). Only cell clusters whose total abundance in one or more of the measured samples was greater than 1% of the total measured sample was retained for downstream analysis, yielding a total of 151 clusters. Third, the Citrus implementation of the SAM algorithm was applied, to identify, separately, differences in cell subset abundances and medians between VTA activated and control mouse samples at a predetermined FDR of 5%. Beyond this, an additional criteria for calling differences was employed, by performing a Mann-Whitney non-parametric test of significance on each cluster found to be different between VTA activated and control and requiring that it meet a p-value <0.05 criteria. Manual inspection of Citrus output was used to identify the closest known gross-cell type, matching the 23 combination clustering marker panel. A similar procedure analysis procedure was performed for 6-OHDA samples versus control. […]",
  "data": [
    {"smiles": "C[N+]1([O-])CCN(C2=Nc3cc(Cl)ccc3Nc3ccccc32)CC1", "note": "[CNO, clozapine-N-oxide]", "values": [
      {"measurement": "abundance of B-cell subsets", "setting": "blood and spleen", "value": "decreased in abundance"},
      {"measurement": "CD1d levels on APC subsets (granulocytes, NK cells, monocyte/macrophages)", "setting": "blood", "value": "reduced"},
      {"measurement": "CD25, CD69 and CD206 expression", "setting": "spleen", "value": "upregulation"},
      {"measurement": "CD80 and CD86 expression", "setting": "spleen", "value": "Upregulation"},
      {"measurement": "CD1d expression", "setting": "spleen", "value": "downregulation"}
    ]}
  ]
}
